The values that follow come from US7264947B2, “Activity dependent neurotrophic factor III (ADNF III)” (United States of America, as represented by the Secretary …, priority 1997, dated 2007).

Where “and” joins values, the source holds several entries; their conditions need not be identical. Equal entries are not always repeated. Entries after “also recorded” stand apart in the source; their conditions may differ.

Test [1] relates to cerebral cortical cultures. It is filed as cell-based, newborn rats. Particulars: 1 μM tetrodotoxin, five days; P<0.01.
Test [2] deals with cerebral cortical cultures. Kind of test: neuroprotection against NMDA toxicity in cerebral cortical cultures. It is filed as cell-based, newborn rats. Particulars: NMDA 10 μM.
Test [3] concerns cerebral cortical cultures. Kind of test: neuroprotection against gp120 toxicity in cerebral cortical cultures. Particulars: 1 pM gp120 (RFII isolate). In kind it is cell-based, newborn rats.
Test [4] deals with cerebral cortical cultures. Kind of test: protection from naturally occurring cell death in cerebral cortical cultures. It is filed as cell-based, newborn rats. The settings on record: FIG. 6C, no toxin added.
Test [5] is described as follows: structure-activity studies of ADNF III peptides (FIGS. 7A and 7B). It is filed as cell-based.
The test system of the next test is AF64A-treated animals. Nature of the test: water maze, learning and memory deficiencies associated with cholinergic blockade (AF64A). It is filed as in vivo. The settings on record: rats, cholinotoxin AF64A, peptide intranasally; listed as NAPVSIPQ
As for the experimental part: Protection against learning and memory deficiencies associated with cholinergic blockade was evaluated. Cholinergic blockade was obtained in rats by administration of the cholinotoxin AF64A, NAPVSIPQ (SEQ ID NO:6), which was administered intranasally and the water maze experiments were performed as before (Gozes et al., Proc. Natl. Acad. Sci. USA 93:427-432 (1996), the teachings of which are incorporated herein by reference).
The ability of ADNF III polypeptides to protect against learning and memory deficiencies associated with cholinergic blockade was also investigated. Cholinergic blockade was obtained in rats by administration of the cholinotoxin AF64A, NAPVSIPQ (SEQ ID NO:6) (termed NAP in FIG. 8). NAPVSIPQ (SEQ ID NO:6) was administered intranasally and the water maze experiments were performed as before (Gozes et al., Proc. Natl. Acad. Sci. USA 93:427-432 (1996)).

The subject of test [6] is choline acetyl transferase. Nature of the test: brain ChAT (choline acetyl transferase) activity in ApoE-deficient mice. Particulars: daily subcutaneous injections from birth to 14 days, measured at 21 days. It is filed as in vivo. As for the experimental part:
The graph depicts incorporation of radio-labeled choline into acetylcholine. Experiments were conducted as described. Apo-E deficient mice are designated: ApoE; 100% activity in the control (C57B6) mice indicated 669758.4 pmole/mg protein/min. As the experiments were repeated 3-5 times the results were standardized against the control calibrated at 100% per each experiment. ApoE-deficient mice daily injected with peptides are designated ADNF-14, ADNF-9, and NAP, respectively.
ChAT activity was measured according to published procedures (Formum et al., Neurochem. 24:407-409 (1975)). Brains were homogenized with 10 volumes of 50 mM phosphate buffer containing 300 mM NaCl, 20 mM EDTA, and 0.5% triton. The homogenates were centrifuged at 12,000×g for 15 min., and […] of supernatant was mixed with […] of a solution of […] ^14C-acetyl CoA ([…] NEN), 20 mM acetylcholine, 1.6 mM choline chloride, 0.25 mM eserine, and phosphate buffer. Incubation was 15 min. at 37° C. The reaction was terminated and radioactivity was measured in a beta-counter. • 21. Apolipoprotein E (ApoE) Deficient Mouse Model
ApoE knockout mice and normal controls were a gift from the late Prof. Shlomo Eisenberg of Tel Aviv University, originally provided by Dr. J. L. Breslow (Plump et al., Cell 71:343-353 (1992)). The ApoE knockout mice were obtained from embryonic stem cells OLA 129 in C57B6×FVB mice (as described). Age-matched controls were inbred C57B6 mice. Groups of mouse pups were treated from birth until the age of 14 days. Daily subcutaneous injections included: […] saline (days 1 through 4), […] saline (days 5 through 10) and […] saline (days 11-14).
ChAT activity was measured according to published procedures (Formum et al., Neurochem. 24:407-409 (1975)).

For a further test, the system named is ApoE-deficient mice. Nature of the test: water maze, ApoE-deficient and control mice after treatment for the first two weeks of life. It is filed as in vivo. The protocol:
Two daily water maze trials were performed on three week-old animals. Groups tested were: 1. control animals injected with vehicle for the first two weeks of life (35 animals of six different litters, with 5-7 animals from each litter, open circles); 2. ApoE-deficient animals injected with vehicle for the first two weeks of life (18 animals derived from three different litters, with 5-7 pups per litter, closed circles); 3. control animals chronically treated with NAP for the first two weeks of life (14 animals derived from three different litters, open triangles); and 4. ApoE-deficient mice chronically treated with NAP for the first two weeks of life (19 animals derived from three different litters, open rectangles). The figure depicts latency (of the second daily trial), measured in seconds, to reach the hidden platform 0.5 min. after being on it. Tests were performed over five consecutive days, and then with a two day delay tested for one additional day. ApoE=ApoE-deficient animals. There was no differences between animals treated with vehicle and untreated animals (data not shown). Statistical comparisons shown were made: 1. between ApoE-deficient and controls; 2. between ApoE-treated with NAP and ApoE-treated with vehicle; and 3. between control-treated with NAP and control-treated with vehicle (*P<0.001; **P<0.03; ***P<0.002). […]

For the substance Asn-Ala-Pro-Val-Ser-Ile-Pro-Gln [NAP], the “concentrations of significant neuroprotection against tetrodotoxin” value in test [1] was 10^−18-10^−14 M. Further, in test [2], the “concentrations of significant neuroprotection against NMDA” value is recorded as > 10^−16 M. The “concentrations of significant neuroprotection against gp120” value in test [3] was 10^−15-10^−10 M. Further, the “protection from naturally occurring cell death” value in test [4] is “protected neurons”. Further, the “relative activity in structure-activity studies” value in test [5] is “most active peptide”. For the same substance, in test [5] (two peaks, listed as NAPVSIPQ), the peak optimum concentrations is 10^−16-10^−14 M and 10^−11-10^−10 M. In addition, in the test on AF64A-treated animals, the “learning and memory in water maze” value is “showed improvement in their learning and memory capacities and behaved as control animals”. In addition, the “brain ChAT activity compared with inbred C57B6 mice” value in test [6] is given as “not significantly different; also recorded: indistinguishable from controls”. Moreover, the “brain ChAT activity compared with vehicle-treated or untreated ApoE-deficient mice” value in test [6] was “significantly improved”. The “water maze performance (latency to hidden platform, second daily trial)” value is “performed as well as control animals; also recorded: ameliorated” in the test on ApoE-deficient mice (ApoE-deficient mice, treated first two weeks of life, tested from 21 days) and “improved their performance” in the test with ApoE-deficient mice (control animals chronically treated for the first two weeks of life).
